Assays:
LMPTP = biological target: T1, LMPTP (Homo sapiens, UniProt P24666); assay: PTP panel IC50, 60-min preincubation; assay type: biochemical
T1 construct: LMWPTP, residues 1-158; made in house; host or cells: E. coli BL21(DE3)
Text: (§1) Building on the results from the SAR “by‐catalog” study, the following medicinal chemistry effort was prioritized on a systematic survey of the central phenyl scaffold, the sulfonamide linker, and the distal aryl moiety with the goal of a multiparameter optimization of potency and selectivity for SHP1 inhibition as well as drug‐like properties such as aqueous solubility and cell permeability. Additionally, given the crucial requirement for targeted covalent inhibitors to maintain tempered reactivity that enables selective target engagement and reduces cross‐reactivity to by‐standing nucleophiles in the cellular milieu,^[ [74], [75] ^] the medicinal chemistry campaign also sought to lower SHP1 covalent inhibitor reactivity with GSH and cytotoxicity. Careful assessment and evaluation of the SAR and other desirable drug‐like attributes of all synthesized molecules led to the identification of M029 (Figure 2a and Figure S2D, manuscript in preparation). […] To determine the selectivity of M029 for SHP1, we measured the IC50 value for M029‐mediated inhibition of a number of PTPs after a 60‐min preincubation. […] To assess potential direct interactions between SHP1 and M029, we utilized the thermal shift assay to measure the thermal stability of SHP1 in the presence of M029. […] To corroborate the covalent interaction between SHP1 and M029, a single SHP1‐M029 covalent adduct was observed by electrospray protein mass spectrometry when SHP1 was incubated with M029 (Figure 2e). […] This is in line with the expectation that SHP1 inactivation by M029 occurs through nucleophilic substitution of the chlorine from the chloroacetamide warhead.
(§2) To further confirm the time-dependent inhibition and determine the IC50 of acquired hits, repurchased compounds from Enamine were serially diluted in a 96-well plate, followed by the addition of proteins at 200 nM. After 10-minute and 60-minute preincubation, 2 µL of the mixture was transferred into 100 µM 6,8-Difluoro-4-Methylumbelliferyl Phosphate (DiFMUP, Invitrogen, cat# D6567) at a final volume of 200 µL. The reaction was allowed to proceed for 5 minutes and quenched by the addition of 40 µl of a 160 µM solution of bpV(Phen) (Sigma-Aldrich, cat# SML0889). The fluorescence signal was measured using a CLARIOstar Plus Microplate Spectrophotometer (BMG Labtech) using excitation and emission wavelengths of 340 nm and 450 nm, respectively. Data were fitted using Prism GraphPad 10.1.1.

Ssu72 = Ssu72 (Homo sapiens, UniProt Q9NP77); assay: PTP panel IC50, 60-min preincubation; assay type: biochemical
Ssu72, sequence (Q9NP77 whole entry, species assumed): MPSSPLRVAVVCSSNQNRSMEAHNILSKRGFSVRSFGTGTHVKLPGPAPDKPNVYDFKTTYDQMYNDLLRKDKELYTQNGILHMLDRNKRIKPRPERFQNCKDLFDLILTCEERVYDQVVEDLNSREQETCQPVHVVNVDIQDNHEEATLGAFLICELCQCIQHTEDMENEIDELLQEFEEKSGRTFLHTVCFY
Text: as §1, §2

PEZ = PEZ (Homo sapiens, UniProt Q15678); assay: PTP panel IC50, 60-min preincubation; assay type: biochemical
PEZ, sequence (Q15678 whole entry, species assumed): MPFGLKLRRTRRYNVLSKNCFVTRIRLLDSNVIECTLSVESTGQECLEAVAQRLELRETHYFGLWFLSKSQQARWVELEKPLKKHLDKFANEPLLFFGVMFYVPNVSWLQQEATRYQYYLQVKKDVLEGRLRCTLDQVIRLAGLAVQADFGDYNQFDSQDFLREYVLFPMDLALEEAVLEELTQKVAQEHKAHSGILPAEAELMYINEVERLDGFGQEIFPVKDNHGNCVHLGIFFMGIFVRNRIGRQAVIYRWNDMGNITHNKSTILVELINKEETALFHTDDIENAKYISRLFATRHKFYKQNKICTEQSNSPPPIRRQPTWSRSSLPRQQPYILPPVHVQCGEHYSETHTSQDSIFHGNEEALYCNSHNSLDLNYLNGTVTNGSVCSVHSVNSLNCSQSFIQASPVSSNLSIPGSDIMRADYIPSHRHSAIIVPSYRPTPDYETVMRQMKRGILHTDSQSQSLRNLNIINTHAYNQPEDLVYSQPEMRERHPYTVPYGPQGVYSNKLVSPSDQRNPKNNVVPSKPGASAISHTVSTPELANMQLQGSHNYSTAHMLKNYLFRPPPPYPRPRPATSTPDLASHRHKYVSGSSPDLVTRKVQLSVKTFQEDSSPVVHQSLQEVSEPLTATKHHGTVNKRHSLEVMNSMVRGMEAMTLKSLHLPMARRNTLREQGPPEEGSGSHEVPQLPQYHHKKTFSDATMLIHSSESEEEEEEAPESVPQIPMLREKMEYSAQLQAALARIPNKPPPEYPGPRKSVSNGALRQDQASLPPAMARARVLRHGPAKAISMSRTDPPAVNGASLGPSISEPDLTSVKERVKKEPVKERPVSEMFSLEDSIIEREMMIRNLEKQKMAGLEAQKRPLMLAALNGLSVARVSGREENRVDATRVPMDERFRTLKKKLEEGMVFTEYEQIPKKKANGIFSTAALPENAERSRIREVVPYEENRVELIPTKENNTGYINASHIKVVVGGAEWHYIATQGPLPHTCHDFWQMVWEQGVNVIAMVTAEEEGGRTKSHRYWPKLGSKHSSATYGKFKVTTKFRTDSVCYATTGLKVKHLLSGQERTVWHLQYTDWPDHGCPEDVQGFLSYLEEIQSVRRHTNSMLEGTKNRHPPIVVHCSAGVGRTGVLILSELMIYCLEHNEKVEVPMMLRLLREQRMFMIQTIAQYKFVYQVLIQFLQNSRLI
Text: as §1, §2

FAP1 = biological target: T2, FAP1 (Homo sapiens, UniProt Q12923); assay: PTP panel IC50, 60-min preincubation; assay type: biochemical
T2 construct: FAP1, residues 2124-2485; made in house; host or cells: E. coli BL21(DE3)
T2 sequence (Q12923 2124-2485): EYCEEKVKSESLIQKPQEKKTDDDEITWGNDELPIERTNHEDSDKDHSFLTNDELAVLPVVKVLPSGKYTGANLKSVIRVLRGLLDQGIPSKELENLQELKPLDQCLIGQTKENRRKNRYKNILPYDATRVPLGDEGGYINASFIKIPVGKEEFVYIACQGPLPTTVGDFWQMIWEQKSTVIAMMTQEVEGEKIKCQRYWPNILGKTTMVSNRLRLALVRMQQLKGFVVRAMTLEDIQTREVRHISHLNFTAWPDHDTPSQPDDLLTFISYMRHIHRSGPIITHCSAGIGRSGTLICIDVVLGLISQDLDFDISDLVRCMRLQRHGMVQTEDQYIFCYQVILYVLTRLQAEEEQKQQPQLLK
Text: as §1, §2

PP5 = PP5 (Homo sapiens, UniProt P53041); assay: PTP panel IC50, 60-min preincubation; assay type: biochemical
PP5, sequence (P53041 whole entry): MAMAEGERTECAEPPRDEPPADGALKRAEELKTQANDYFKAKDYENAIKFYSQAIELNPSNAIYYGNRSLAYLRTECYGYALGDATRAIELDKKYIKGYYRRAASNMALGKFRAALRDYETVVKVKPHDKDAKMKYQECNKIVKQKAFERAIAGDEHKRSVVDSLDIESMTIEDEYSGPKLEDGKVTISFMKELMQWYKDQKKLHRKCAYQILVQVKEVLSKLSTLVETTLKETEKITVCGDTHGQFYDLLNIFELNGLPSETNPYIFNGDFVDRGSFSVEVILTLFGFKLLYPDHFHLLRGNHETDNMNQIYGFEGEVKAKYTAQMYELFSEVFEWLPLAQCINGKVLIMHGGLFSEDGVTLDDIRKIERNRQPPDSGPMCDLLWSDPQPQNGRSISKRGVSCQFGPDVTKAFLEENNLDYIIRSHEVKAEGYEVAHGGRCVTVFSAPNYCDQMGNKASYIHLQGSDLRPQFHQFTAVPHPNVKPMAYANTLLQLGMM
Text: as §1, §2

TCPTP = biological target: T3, TCPTP (Homo sapiens, UniProt P17706); assay: PTP panel IC50, 60-min preincubation; assay type: biochemical
T3 construct: TC-PTP, residues 1-387; made in house; host or cells: E. coli BL21(DE3)
T3 sequence (P17706 1-387 isoform P17706-2): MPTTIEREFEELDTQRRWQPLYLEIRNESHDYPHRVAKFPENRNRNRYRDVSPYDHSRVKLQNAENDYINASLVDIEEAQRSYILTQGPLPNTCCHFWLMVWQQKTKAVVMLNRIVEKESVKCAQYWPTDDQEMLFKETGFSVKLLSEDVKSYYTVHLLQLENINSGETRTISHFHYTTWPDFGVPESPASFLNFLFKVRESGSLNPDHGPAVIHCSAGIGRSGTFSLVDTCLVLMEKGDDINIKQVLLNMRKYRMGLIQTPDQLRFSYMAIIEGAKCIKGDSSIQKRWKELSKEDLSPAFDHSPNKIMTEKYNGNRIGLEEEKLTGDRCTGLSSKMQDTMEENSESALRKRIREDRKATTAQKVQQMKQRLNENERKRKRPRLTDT
Text: as §1, §2

[1] = test system: MC38 tumor immune infiltrates; assay: Flow cytometry of MC38 tumor immune infiltrates; assay type: in vivo, C57BL/6 mice; details: MC38 tumors
Experimental: Figure 5 M029 inhibits syngeneic MC38 tumor growth by promoting infiltration and activation of both T cells and NK cells in the tumor microenvironment. […] This T cell activation was further supported by i) the increased effector CD8^+ population in the tumor microenvironment. […] Statistical analyses were performed with Graphpad Prism software 10.4.2 through the student t test or the one‐way ANOVA test using Turkey post‐hoc comparison. *p < 0.05, **p < 0.01, ***p < 0.001, and ****p < 0.0001 were considered significant. Figures are plotted as average ± standard error of the mean (SEM).
To elucidate the mechanism by which M029 elicits its antitumor activity, we analyzed the immune cell population within the tumor samples. […] This observation is in line with earlier reports that SHP1 activity contributes to LAIR1‐mediated T cell exhaustion.^[ [91] ^]
For immune cell profiling in the tumor microenvironment, tumor samples were first reduced to single-cell suspensions by compressing the tumors through a 70 µm filter (Falcon, #352350) into cold 1× PBS supplemented with 5 mM EDTA using the plunger of a syringe (HSW, #4010-200V0). Samples were strained through a second filter and then re-suspended in cold blocking buffer made of 5% BSA, 0.5 mM EDTA, and a 1:1000 dilution of CD16/32. Samples were then incubated with following fluorophore-conjugated antibodies. CD4-488 (Biolegend #100423), CD8a-PE (Biolegend #100708), CD45-PeCy7 (Biolegend #103114), CD25-BV605 (Biolegend #102035), CD44-647 (Biolegend #103039), CD19-488 (Biolegend #115524), NK1.1-647 (Biolegend #108719), CD3-PeCy5 (Biolegend #100273), CD8-BV711 (Biolegend #100747), CD4-PeCy5 (Biolegend #100409), CD69-FITC (Biolegend #104505), FoxP3-488 (Biolegend #126405), Perforin-APC (Biolegend #154303), CD62L-BV605 (Biolegend #104437), TIM3-PerCP/Cy5.5 (Biolegend #134011), PD1-647 (Biolegend #109118), CD11b-BV711 (Biolegend #101241), CD206-FITC (Biolegend #141704), F4/80-647 (Biolegend #123122), CD86-PE (Biolegend #159203), CD11c-BV421 (Biolegend #117329), Ly6G-488 (Biolegend #127625), CD11b-APC (Biolegend #101211), Ly6C-PE (Biolegend #128007), F4/80-BV711 (Biolegend #123147), IL2-BV421 (Biolegend #503825), IFNγ-BV605 (Biolegend #505839), TNFα-APC (Biolegend #506307). The following antibodies were used for depletion studies: anti-CD8α (BioXCell #BE0061) and anti-NK1.1 (BioXCell #BE0036). Samples were incubated with antibodies at a 1:600 dilution in blocking buffer on ice for two hours. After staining, samples were washed and re-suspended in 5% BSA, 0.5 mM EDTA solution, then added to a 5 mL polystyrene tube for analysis (Falcon, #352235). Sample data was acquired using a BD LSRFortessa Cell Analyzer, and results were analyzed using FlowJo.

T1 sequence (P24666 whole entry, the tested form may be a part): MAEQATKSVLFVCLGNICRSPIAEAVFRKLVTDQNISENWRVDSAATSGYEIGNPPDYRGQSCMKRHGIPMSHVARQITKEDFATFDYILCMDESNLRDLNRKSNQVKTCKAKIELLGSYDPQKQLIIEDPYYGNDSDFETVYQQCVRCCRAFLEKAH

N#Cc1ccsc1NS(=O)(=O)c1ccc(NC(=O)CCl)cc1 [M029, 2-Chloro-N-(4-(N-(3-cyanothiophen-2-yl)sulfamoyl)phenyl)acetamide]
IC50 (LMPTP): > 200 µM
IC50 (Ssu72): > 200 µM
IC50 (PEZ): 172 ± 19.3 µM
IC50 (FAP1): > 200 µM
IC50 (PP5): > 200 µM
IC50 (TCPTP): 150 ± 31.1 µM
late exhaustion T cells (PD1+TIM3+) [1]: a decline
pre-exhausted PD1+TIM3− T cells [1]: increased
activation marker CD25 on infiltrating CD8+ T cells ([1]; 25 mg/kg): higher expression
activation of tumor-infiltrating NK cells (CD69) ([1]; 25 mg/kg): significantly more activated
cytotoxicity marker perforin on infiltrating CD8+ T cells ([1]; 25 mg/kg): higher expression
effector markers CD44+CD62L− on infiltrating CD8+ T cells ([1]; 25 mg/kg): higher expression
infiltration of cytotoxic CD8+ T cells ([1]; 25 mg/kg): increased infiltration
increase of CD3+ T cells in tumor ([1]; 25 mg/kg, vs control): ~33%
increase of NK1.1+ NK cells in tumor ([1]; 25 mg/kg, vs control): ~100%
